Measurements: patent US20230041138A1, “TREATMENT OF HIS HYPORESPONDERS” (NewAmsterdam Pharma B.V. (Dutch Registration No. 55971946), priority 2021, published 2023)

How the values were obtained:
[1] = Phase 2 study: PK follow-up, plasma obicetrapib concentrations after end of treatment; type: in vivo, human
Protocol: The screening period for this study took up to 2-weeks. Afterwards patients were randomized to placebo, 5 mg obicetrapib or 10 mg obicetrapib for an 8-week treatment period. After the treatment period, patients continued for a 4-week safety follow-up and a 15-week PK follow-up.
(§1) The primary outcome measure was LDL-C (percent change). Secondary outcome measures included ApoB, Non-HDL-C and HDL-C (percent change). The Intent-to-Treat (ITT) Population included all participants randomized into the study. The Modified ITT (mITT) Population included all participants in the ITT Population who receive at least 1 dose of any study drug and have a baseline value for the LDL-C assessment. The Safety Population included all participants who receive at least 1 dose of any study drug. The mITT Population was the primary population for the efficacy analyses. The primary efficacy analysis of the percent change in LDL-C was performed using a mixed model for repeated measures (MMRM) approach. In order to maintain the overall Type I error rate, the secondary efficacy endpoints were tested sequentially at the 0.05 significance level according to the pre-specified order of hierarchy. All safety endpoints were summarized descriptively. No statistical inference was applied to the safety endpoints. Plasma obicetrapib concentrations were summarized with descriptive statistics based on the […].

[2] = Phase 2 study of obicetrapib as adjunct to high-intensity statin therapy: safety and tolerability (adverse events); type: in vivo, human; details: for AEs, total: subjects, number (%): on top of high-intensity statin; for Subjects reporting treatment-emergent adverse events: safety population
Protocol: Patients were randomly assigned to receive one of the three treatments investigative treatments. All treatments were to be taken once daily with food for 8 weeks. Safety was assessed throughout the trial by monitoring adverse events and concomitant medication use, 12-lead electrocardiograms (ECGs), vital signs, laboratory safety assessments and physical examinations. Additional assessments included salivary cortisol, plasma aldosterone, high-sensitivity C-reactive protein (hsCRP) and endothelin 1.
Safety and tolerability profiles of obicetrapib assessed by clinical laboratory values and incidence of adverse events (AEs).
as §1

[3] = either obicetrapib treatment group (5 mg, 10 mg)

With `CCOC(=O)N1c2ccc(C(F)(F)F)cc2[C@@H](N(Cc2cc(C(F)(F)F)cc(C(F)(F)F)c2)c2ncc(OCCCC(=O)O)cn2)C[C@H]1CC` [Obicetrapib, (2R,4S)-4-{[3,5-bis(trifluoromethyl)benzyl]-[5-(3-carboxypropoxy)pyrimidin-2-yl]amino}-2-ethyl-6-trifluoromethyl-3,4-dihydro-2H-quinoline-1-carboxylic acid ethyl ester] the “Plasma obicetrapib levels, median decrease after end-of-treatment” value ([1]; 5 mg group, 4 weeks after end-of-treatment) was 92%, the “Plasma obicetrapib levels, median decrease after end-of-treatment” value ([1]; 5 mg group, 8 weeks after end-of-treatment) was 98% and the “Plasma obicetrapib levels, median decrease after end-of-treatment” value ([1]; 5 mg group, 15 weeks after end-of-treatment) was 99%. The “Plasma obicetrapib levels, median decrease after end-of-treatment” value ([1]; 10 mg group, 4 weeks after end-of-treatment) was 93%, the “Plasma obicetrapib levels, median decrease after end-of-treatment” value ([1]; 10 mg group, 8 weeks after end-of-treatment) was 98% and the “Plasma obicetrapib levels, median decrease after end-of-treatment” value ([1]; 10 mg group, 15 weeks after end-of-treatment) was 99%. For the same compound, the “Tolerability and safety profile” value ([2]; 5 mg and 10 mg on top of high intensity statin therapy) was “well tolerated with a safety profile similar to placebo”, the “Subjects reporting events considered study drug related” value ([2]; 5 mg group) was 2 subjects and the “AEs, related: number of events” value ([2]; 5 mg group (N = 40)) was 2 events. The “AEs, related: subjects, number (%)” value ([2]; 5 mg group (N = 40)) was 2 (5.0), the “AEs, severe” value ([2]; 5 mg group (N = 40)) was 0 and the “AEs, total: number of events” value ([2]; 5 mg group (N = 40)) was 24 events. For the same compound, the Deaths ([2]; 5 mg group (N = 40)) was 0, the “SAEs, related” value ([2]; 5 mg group (N = 40)) was 0 and the “SAEs, total” value ([2]; 5 mg group (N = 40)) was 0. The “TEAEs leading to discontinuation of study drug” value ([2]; 5 mg group (N = 40)) was 0, the “TESAEs leading to discontinuation of study” value ([2]; 5 mg group (N = 40)) was 0 and the “AEs, total: subjects, number (%)” value ([2]; 5 mg group (N = 40)) was 13 (32.5). The “Adverse events: Basal cell carcinoma” value ([2]; 5 mg group (n = 40)) was 0 (0.0) n (%), the “Adverse events: Fatigue” value ([2]; 5 mg group (n = 40)) was 2 (5.0) n (%) and the “Adverse events: Gastrointestinal disorders” value ([2]; 5 mg group (n = 40)) was 3 (7.5) n (%). The “Adverse events: General disorders and administration site conditions” value ([2]; 5 mg group (n = 40)) was 3 (7.5) n (%), the “Adverse events: Hypertension” value ([2]; 5 mg group (n = 40)) was 2 (5.0) n (%) and the “Adverse events: Infections and infestations” value ([2]; 5 mg group (n = 40)) was 1 (2.5) n (%). For the same compound, the “Adverse events: Injury, poisoning and procedural complications” value ([2]; 5 mg group (n = 40)) was 3 (7.5) n (%), the “Adverse events: Investigations” value ([2]; 5 mg group (n = 40)) was 2 (5.0) n (%) and the “Adverse events: Metabolism and nutrition disorders” value ([2]; 5 mg group (n = 40)) was 2 (5.0) n (%). The “Adverse events: Muscle spasms” value ([2]; 5 mg group (n = 40)) was 0 (0.0) n (%), the “Adverse events: Musculoskeletal and connective tissue disorders” value ([2]; 5 mg group (n = 40)) was 4 (10.0) n (%) and the “Adverse events: Nausea” value ([2]; 5 mg group (n = 40)) was 1 (2.5) n (%). For the same compound, the “Adverse events: Neoplasms benign, malignant and unspecified (including cysts and polyps)” value ([2]; 5 mg group (n = 40)) was 0 (0.0) n (%), the “Adverse events: Nervous system disorders” value ([2]; 5 mg group (n = 40)) was 2 (5.0) n (%) and the “Adverse events: Respiratory, thoracic and mediastinal disorders” value ([2]; 5 mg group (n = 40)) was 2 (5.0) n (%). The “Adverse events: Type 2 diabetes mellitus” value ([2]; 5 mg group (n = 40)) was 2 (5.0) n (%), the “Adverse events: Vascular disorders” value ([2]; 5 mg group (n = 40)) was 2 (5.0) n (%) and the “Subjects reporting treatment-emergent adverse events” value ([2]; 5 mg group) was 15 subjects. The “Subjects reporting events considered study drug related” value ([2]; 10 mg group) was 1 subject, the “AEs, related: number of events” value ([2]; 10 mg group (N = 40)) was 1 events and the “AEs, related: subjects, number (%)” value ([2]; 10 mg group (N = 40)) was 1 (2.5). For the same compound, the “AEs, severe” value ([2]; 10 mg group (N = 40)) was 0, the “AEs, total: number of events” value ([2]; 10 mg group (N = 40)) was 11 events and the Deaths ([2]; 10 mg group (N = 40)) was 0. For the same compound, the “SAEs, related” value ([2]; 10 mg group (N = 40)) was 0, the “SAEs, total” value ([2]; 10 mg group (N = 40)) was 0 and the “TEAEs leading to discontinuation of study drug” value ([2]; 10 mg group (N = 40)) was 0. For the same compound, the “TESAEs leading to discontinuation of study” value ([2]; 10 mg group (N = 40)) was 0, the “AEs, total: subjects, number (%)” value ([2]; 10 mg group (N = 40)) was 8 (20.0) and the “Adverse events: Basal cell carcinoma” value ([2]; 10 mg group (n = 40)) was 0 (0.0) n (%). The “Adverse events: Fatigue” value ([2]; 10 mg group (n = 40)) was 1 (2.5) n (%), the “Adverse events: Gastrointestinal disorders” value ([2]; 10 mg group (n = 40)) was 0 (0.0) n (%) and the “Adverse events: General disorders and administration site conditions” value ([2]; 10 mg group (n = 40)) was 2 (5.0) n (%). For the same compound, the “Adverse events: Hypertension” value ([2]; 10 mg group (n = 40)) was 0 (0.0) n (%), the “Adverse events: Infections and infestations” value ([2]; 10 mg group (n = 40)) was 0 (0.0) n (%) and the “Adverse events: Injury, poisoning and procedural complications” value ([2]; 10 mg group (n = 40)) was 1 (2.5) n (%). The “Adverse events: Investigations” value ([2]; 10 mg group (n = 40)) was 0 (0.0) n (%), the “Adverse events: Metabolism and nutrition disorders” value ([2]; 10 mg group (n = 40)) was 0 (0.0) n (%) and the “Adverse events: Muscle spasms” value ([2]; 10 mg group (n = 40)) was 0 (0.0) n (%). For the same compound, the “Adverse events: Musculoskeletal and connective tissue disorders” value ([2]; 10 mg group (n = 40)) was 4 (10.0) n (%), the “Adverse events: Nausea” value ([2]; 10 mg group (n = 40)) was 0 (0.0) n (%) and the “Adverse events: Neoplasms benign, malignant and unspecified (including cysts and polyps)” value ([2]; 10 mg group (n = 40)) was 0 (0.0) n (%). The “Adverse events: Nervous system disorders” value ([2]; 10 mg group (n = 40)) was 2 (5.0) n (%), the “Adverse events: Respiratory, thoracic and mediastinal disorders” value ([2]; 10 mg group (n = 40)) was 0 (0.0) n (%) and the “Adverse events: Type 2 diabetes mellitus” value ([2]; 10 mg group (n = 40)) was 0 (0.0) n (%). The “Adverse events: Vascular disorders” value ([2]; 10 mg group (n = 40)) was 0 (0.0) n (%), the “Subjects reporting treatment-emergent adverse events” value ([2]; 10 mg group) was 8 subjects and the “Laboratory parameters (chemistry, hematology, urinalysis) compared with placebo” value [2, 3] was “no clinically meaningful shifts in chemistry, hematology or urinalysis parameters”. For the same compound, the “Vital signs compared with placebo” value [2, 3] was “no changes in vital signs”.
